Data reported in paper PMC11638965, “Leveraging Dual-Ligase Recruitment to Enhance Protein Degradation via a Heterotrivalent Proteolysis Targeting Chimera” (Journal of the American Chemical Society, 2024).

Legend:
Test in all cases: Western blot dose-response degradation in homozygous HiBiT-BromoTag-BRD4 HEK293 cells
[1] = molecular target: T1, BromoTag-BRD4 (BRD4^Short) (Homo sapiens, UniProt O60885, L387A); format: cell-based
T1 construct: homozygous endogenous HiBiT-BromoTag-BRD4 HEK293 cell line; endogenous in cells; host or cells: HEK293, homozygous CRISPR knock-in eGFP-IRES-HiBiT-BromoTag-BRD4
Procedure: (§1) Cell Culture HEK293 cells were obtained from ATCC. HEK293 was cultured in DMEM supplemented with 10% (v/v) fetal bovine serum (FBS), 1% […] and 1% (v/v) penicillin/streptomycin (pen/strep) at 37 °C, 5% CO2, and 95% humidity.
(§2) To perform the single gRNA Cas9 CRISPR KI of BromoTag into BRD4 in HEK293. HEK293 cells were plated at a density of 5 × 10^5 cells into individual wells of a six-well plate in 1 mL of DMEM and left overnight to adhere to the plate. The cells were subsequently transfected the following day using GeneJuice lipofectamine reagent simultaneously with a custom donor vector pMK-RQ containing 500bp BRD4 homology arms on either side of an eGFP-IRES-HiBiT-BromoTag and two individual pBABED vector harboring U6-sgRNA and puromycin expression cassettes containing two BRD4 targeting gRNA sequences: […] and […]. The construction of these plasmids was performed by Thomas Macartney of the MRC-PPU CRISPR services. The following day cells were washed with PBS before fresh DMEM media was applied cells were left to recover in DMEM for a further 4 days. Cells were subsequently FACS sorted for GFP expression and expanded from single cells. HEK293 clones were validated for eGFP-IRES-HiBIT-BromoTag-BRD4 integration via WB, junction PCR and sequencing.
(§3) Dose–response degradation assay 97 of was performed on the genotype verified eGFP-IRES-HiBIT-BromoTag-BRD4 homozygous HEK293 cell lines. The cells were plated at a density of 5 × 10^5 cells per well of a six well plate a day prior to initiation of the experiment. 97 was dissolved into a 10 mM concentrated stock solution in DMSO from which 97 was further diluted to a working concentration range of 10 μM to 10 pM in DMEM and was subsequently added to cells. Additional controls including, vehicle, AGB1 (1 μM) and cis-AGB1 (1 μM) were similarly added to cells alongside 97 treatments. Cells were left to incubate with compound for 4 h at 37 °C, 5% CO2, and 95% humidity. Cells were then subsequently washed twice with PBS before being harvested in RIPA buffer supplemented with protease inhibitor cocktail and Benzonase Nuclease before being store at −20 °C.
(§4) Total protein quantity was determined using the BCA protein assay. Protein concentration was determined using the BCA assay. Samples were then prepared in LDS buffer and subsequently loaded onto NuPAGE 4–12% Bis-Tris Midi gels, followed by the transfer of the proteins onto nitrocellulose membranes. The membranes were blocked for 1 h prior to incubation with the primary antibodies using 5% Milk TBST. Membranes were incubated at 4 °C in either BRD4(Ab128874), BRD3(Ab50818) or BRD2(Ab139690) primary antibody overnight. Following overnight incubation, the membranes were incubated with complementary IRDye 800CW secondary antibodies and a hFAB Rhodamine Anti-Tubulin Primary Antibody (loading control) for 1 h and then imaged with a Bio-Rad imager. All Western blots were analyzed for band intensities using Image Lab (Bio-Rad). The data extracted from these blots were then plotted and analyzed using Prism (v. 10.2.2, GraphPad). All Western blotting figures were developed in Adobe Illustrator.

BRD3 = molecular target: T2, BRD3 (Homo sapiens, UniProt Q15059); format: cell-based
T2 construct: HiBiT, is appended to the N-terminus of endogenous BRD2, BRD3, and BRD4; endogenous in cells
T2 sequence (Q15059 whole entry): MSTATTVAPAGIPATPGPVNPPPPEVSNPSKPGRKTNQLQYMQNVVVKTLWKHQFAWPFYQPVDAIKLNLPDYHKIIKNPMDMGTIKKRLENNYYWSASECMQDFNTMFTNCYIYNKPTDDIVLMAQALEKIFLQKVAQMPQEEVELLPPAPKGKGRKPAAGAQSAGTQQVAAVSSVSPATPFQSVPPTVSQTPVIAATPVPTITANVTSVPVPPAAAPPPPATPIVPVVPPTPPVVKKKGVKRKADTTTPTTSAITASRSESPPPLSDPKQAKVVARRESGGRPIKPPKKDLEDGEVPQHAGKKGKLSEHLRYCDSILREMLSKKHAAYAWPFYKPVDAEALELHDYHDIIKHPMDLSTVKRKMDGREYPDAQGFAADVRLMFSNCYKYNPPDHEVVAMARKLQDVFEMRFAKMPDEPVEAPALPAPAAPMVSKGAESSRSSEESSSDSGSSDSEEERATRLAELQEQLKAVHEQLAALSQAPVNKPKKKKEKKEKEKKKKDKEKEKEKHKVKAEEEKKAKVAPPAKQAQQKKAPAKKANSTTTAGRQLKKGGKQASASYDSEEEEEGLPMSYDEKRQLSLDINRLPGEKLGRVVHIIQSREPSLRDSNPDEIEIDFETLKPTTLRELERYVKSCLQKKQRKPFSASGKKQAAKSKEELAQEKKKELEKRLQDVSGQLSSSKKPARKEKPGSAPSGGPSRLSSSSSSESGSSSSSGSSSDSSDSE
Procedure: as §1, §2, §3, §4

BRD2 = molecular target: T3, BRD2 (Homo sapiens, UniProt P25440); format: cell-based
T3 construct: HiBiT, is appended to the N-terminus of endogenous BRD2, BRD3, and BRD4; endogenous in cells
T3 sequence (P25440 whole entry): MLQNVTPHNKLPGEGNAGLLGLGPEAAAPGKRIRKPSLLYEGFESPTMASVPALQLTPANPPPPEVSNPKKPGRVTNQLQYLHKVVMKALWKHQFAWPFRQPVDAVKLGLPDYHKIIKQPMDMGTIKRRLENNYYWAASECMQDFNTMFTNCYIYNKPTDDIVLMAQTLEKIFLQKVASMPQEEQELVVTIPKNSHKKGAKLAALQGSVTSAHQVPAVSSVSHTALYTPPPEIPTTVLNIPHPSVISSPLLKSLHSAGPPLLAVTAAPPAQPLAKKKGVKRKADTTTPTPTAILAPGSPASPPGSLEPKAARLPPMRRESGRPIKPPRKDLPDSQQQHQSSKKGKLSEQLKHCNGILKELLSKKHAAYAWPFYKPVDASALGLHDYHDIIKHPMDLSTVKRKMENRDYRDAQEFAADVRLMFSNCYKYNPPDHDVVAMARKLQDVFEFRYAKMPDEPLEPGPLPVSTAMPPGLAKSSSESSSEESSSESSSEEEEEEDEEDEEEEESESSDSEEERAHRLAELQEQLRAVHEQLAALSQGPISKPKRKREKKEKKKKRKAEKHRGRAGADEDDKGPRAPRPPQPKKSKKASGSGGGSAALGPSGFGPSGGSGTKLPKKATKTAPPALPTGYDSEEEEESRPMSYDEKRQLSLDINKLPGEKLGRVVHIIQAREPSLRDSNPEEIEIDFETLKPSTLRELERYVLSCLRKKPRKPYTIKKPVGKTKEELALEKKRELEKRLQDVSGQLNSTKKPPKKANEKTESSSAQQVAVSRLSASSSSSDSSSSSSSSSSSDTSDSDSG
Procedure: as §1, §2, §3, §4

CRBN = CRBN (Homo sapiens, UniProt Q96SW2); format: cell-based; parameters: Western blot data for BET, CRBN and VHL protein levels; endogenous in cells; host or cells: HEK293 (ATCC)
Chain of CRBN (Q96SW2 whole entry): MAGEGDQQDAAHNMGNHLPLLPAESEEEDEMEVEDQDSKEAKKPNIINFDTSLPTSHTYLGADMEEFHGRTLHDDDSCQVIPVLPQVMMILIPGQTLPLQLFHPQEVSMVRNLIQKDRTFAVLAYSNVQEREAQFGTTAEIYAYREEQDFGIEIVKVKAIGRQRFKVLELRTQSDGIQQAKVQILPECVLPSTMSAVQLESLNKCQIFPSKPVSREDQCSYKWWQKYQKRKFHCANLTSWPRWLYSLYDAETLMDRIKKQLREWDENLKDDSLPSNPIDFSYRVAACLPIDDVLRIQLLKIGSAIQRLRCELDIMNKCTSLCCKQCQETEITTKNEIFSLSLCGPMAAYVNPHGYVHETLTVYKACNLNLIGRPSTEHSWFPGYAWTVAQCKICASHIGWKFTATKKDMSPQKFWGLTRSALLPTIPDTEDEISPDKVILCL
Procedure: as §1, §2
Dose–response degradation assay 97 of was performed on the genotype verified eGFP-IRES-HiBIT-BromoTag-BRD4 homozygous HEK293 cell lines. The cells were plated at a density of 5 × 10^5 cells per well of a six well plate a day prior to initiation of the experiment. 97 was dissolved into a 10 mM concentrated stock solution in DMSO from which 97 was further diluted to a working concentration range of 10 μM to 10 pM in DMEM and was subsequently added to cells. […]
Total protein quantity was determined using the BCA protein assay. Protein concentration was determined using the BCA assay. […] All Western blots were analyzed for band intensities using Image Lab (Bio-Rad). The data extracted from these blots were then plotted and analyzed using Prism (v. 10.2.2, GraphPad). […]

[2] = test system: BromoTag-BRD4 (BRD4^Long); format: cell-based, human; conditions: for pDC50 BRD4Long: homozygous BromoTag-BRD4 HEK293 cells (Table S8)
Procedure: as §1, §2, §3
Total protein quantity was determined using the BCA protein assay. Protein concentration was determined using the BCA assay. Samples were then prepared in LDS buffer and subsequently loaded onto NuPAGE 4–12% Bis-Tris Midi gels, followed by the transfer of the proteins onto nitrocellulose membranes. The membranes were blocked for 1 h prior to incubation with the primary antibodies using 5% Milk TBST. […] All Western blots were analyzed for band intensities using Image Lab (Bio-Rad). The data extracted from these blots were then plotted and analyzed using Prism (v. 10.2.2, GraphPad). […]

[3] = HiBiT-BromoTag-BRD4 HEK293, 4 hours (Figure 12)
[4] = homozygous BromoTag-BRD4 HEK293 cells (Table S8)
[5] = HiBiT-BromoTag-BRD4 HEK293, 4 hours, n = 1 (Figure 12)

| DC50 [1, 3] [nM] | Dmax [1, 3] [%] | pDC50 BRD4Short [1, 4] | selectivity window of BromoTag-BRD4 degradation over BRD3 (BRD3; DC50 ratio) [fold] | DC50 (BRD3; [3]) [nM] | Dmax (BRD3; [3]) [%] | pDC50 BRD3 (BRD3; [4]) | selectivity window of BromoTag-BRD4 degradation over BRD2 (BRD2; DC50 ratio) [fold] | DC50 (BRD2; [3]) [nM] | Dmax (BRD2; [3]) [%] | Dmax (BRD2; [4]) [%] | fold more potent degradation of CRBN than 27 (CRBN; DC50 2.1 nM vs 75 nM) [fold] | DC50 (CRBN; [5]) [nM] | Dmax (CRBN; [5]) [%] | DC50 [2, 3] [nM] | pDC50 BRD4Long [2] | Dmax % BRD4Short [1, 4] [%] | Structure (SMILES) | Dmax BRD4^Long [2, 3] [%] |
| --- | --- | --- | --- | --- | --- | --- | --- | --- | --- | --- | --- | --- | --- | --- | --- | --- | --- | --- |
| 0.14 | 86 | 9.9 ± 0.1 | 250 | 33 | 79 | 7.5 ± 0.4 | 6000 | 770 | 50 | 56 | ~35 | 2.1 | 77 | 0.12 | 9.9 ± 0.6 | – | CC[C@@H](C(=O)OCCOCCOCCOCC(C)(COCCOCCOCCNc1cc2c(cc1F)C(=O)N(C1CCC(=O)NC1=O)C2=O)COCC(=O)N[C@H](C(=O)N1C[C@H](O)C[C@H]1C(=O)N[C@@H](C)c1ccc(-c2scnc2C)cc1)C(C)(C)C)[C@@H]1N=C(c2ccc(Cl)cc2)c2c(sc(C)c2C)-n2c(C)nnc21 (mixture of isomers) [AB3145 (97), (17S)-11-((2-(2-(2-((2-(2,6-dioxopiperidin-3-yl)-6-fluoro-1,3-dioxoisoindolin-5-yl)amino)ethoxy)ethoxy)ethoxy)methyl)-17-((2S,4R)-4-hydroxy-2-(((S)-1-(4-(4-methylthiazol-5-yl)phenyl)ethyl)carbamoyl)pyrrolidine-1-carbonyl)-11,18,18-trimethyl-15-oxo-3,6,9,13-tetraoxa-16-azanonadecyl (2R)-2-((S)-4-(4-chlorophenyl)-2,3,9-trimethyl-6H-thieno[3,2-f][1,2,4]triazolo[4,3-a][1,4]diazepin-6-yl)butanoate] | 85 |
| – | – | 8.6 ± 0.1 | – | – | – | – | – | – | – | – | – | – | – | – | 8.0 ± 0.2 | 11 | CC[C@@H](C(=O)OCCOCCOCCOCC(=O)N[C@H](C(=O)N1C[C@H](O)C[C@H]1C(=O)NCc1ccc(-c2scnc2C)cc1)C(C)(C)C)[C@@H]1N=C(c2ccc(Cl)cc2)c2c(sc(C)c2C)-n2c(C)nnc21 [AGB1, reference compound] | – |
